Source: patent US20070271620A1, “Animal model for type II diabetes mellitus and Syndrome X and methods and uses thereof” (priority 2005, published 2007)
Several values for one entry are separate records, joined by “and”; a condition that tells them apart may be missing. Equal entries are not always repeated.

Key:
[1] = test system: cross-bred pigs (Yorkshire×Landrace); experiment: Fasting and postprandial plasma lipid profiles and postprandial insulin in STZ diabetic pigs; type: in vivo, pig
Protocol: Fasting blood samples were taken before the start of hyperinsulinemic clamp experiments and postprandial blood samples were taken two to three hours after a morning meal in the week following a clamp study.
Blood samples for determination of triglycerides and non-esterified fatty acids (NEFA) were collected in tubes containing EDTA (0.47 mol/L EDTA, 10 mL Venoject, Terumo, Leuven, Belgium) and immediately chilled at 0° C. on ice, and centrifuged at 4° C. for ten minutes at 3000 rpm. Plasma was stored, at −20° C. in four aliquots of 0.5 mL for further analyses.
Concentrations of triglycerides, cholesterol and NEFA were measured using commercially available test kits (Boehringer Mannheim, Mannheim Germany; Human, Wiesbaden, Germany; and Wako Chemicals, Neuss, Germany, respectively).

[2] = test system: cross-bred pigs (Yorkshire×Landrace); experiment: 6,6-2H-glucose tracer kinetics (fasting Ra glucose, hepatic glucose production, whole body glucose uptake) in STZ diabetic pigs; type: in vivo, pig; settings: 130 mg STZ/kg
Protocol: Protocol 1: fasting hepatic glucose production and whole body glucose uptake were studied with 6,6-^2H-glucose infusion in five normal and five STZ (130 mg/kg) diabetic pigs.
Protocol 2: insulin-mediated hepatic glucose production and whole body glucose uptake were studied with the hyperinsulinemic (1 or 2 mU/kg/minute) euglycemic clamp technique in combination with 6,6-^2H-glucose infusion in six normal and seven STZ (130 mg/kg) diabetic pigs.
After overnight fasting, a 6,6-^2H-glucose solution was administered as a prime—(72 mg) continuous (1.2 mg/minute) infusion for three hours in normal pigs. In diabetic pigs, 6,6-^2H-glucose was given as an adjusted prime— (216 mg) continuous (3.6 mg/minute) infusion for three hours (Koopmans et al., 1991). Isotopic steady-state conditions were achieved within 90 minutes after initiation of the tracer infusion and steady-state calculations were carried out during the last hour of the tracer infusion (t=120, 135, 150, 165 and 180 minutes). […]
Blood samples for determination of 6,6-^2H-glucose enrichment, glucose and insulin were collected in heparinized tubes (150 USP. U. Lithium Heparin, 10 mL Venoject, Terumo, Leuven, Belgium) and immediately chilled at 0° C. on ice and centrifuged at 4° C. for ten minutes at 3000 rpm. […] Selected ion monitoring, data acquisition and quantitative calculations were performed using the HP Chemstation software. Glucose concentration was determined using the internal standard method (xylose was added as internal standard). The internal standard was monitored at m/z 145. Glucose was monitored at m/z 187 for glucose and m/z 189 for d2-glucose. Glucose enrichments were calculated by dividing the area of the m/z 189 peak and the m/z 187 peak and correcting for natural enrichments. Isotopic enrichment was calculated as tracer-to-tracee ratio after subtracting the isotopic enrichment of a background plasma sample. An aliquot of the 6,6-^2H-glucose infusate was analyzed for the isotope concentration to calculate the actual infusion rate for each infusion experiment. […]

[3] = pigs, STZ 130 mg/kg, two to three hours after morning meal

Structure (SMILES): CN(N=O)C(=O)N[C@H]1C(O)O[C@H](CO)[C@@H](O)[C@@H]1O (mixture of isomers) [STZ, streptozotocin]
- Postprandial plasma insulin ([1]; STZ diabetic pigs, two to three hours after feeding, detection limit): ~1 mU/L
- Fasting cholesterol and NEFA concentrations compared to normal pigs ([1]; pigs, STZ 130 mg/kg): did not differ
- Fasting plasma NEFA ([1]; pigs, STZ 130 mg/kg): 0.9 ± 0.3 mmol/L
- Fasting plasma cholesterol ([1]; pigs, STZ 130 mg/kg): 2.1 ± 0.2 mmol/L
- Fasting plasma triglyceride elevation compared to normal pigs ([1]; pigs, STZ 130 mg/kg): five-fold
- Fasting plasma triglycerides ([1]; pigs, STZ 130 mg/kg): 1.0 mmol/L and 1.0 ± 0.3 mmol/L
- Postprandial plasma NEFA elevation compared to normal pigs ([1]; pigs, STZ 130 mg/kg): seven-fold
- Postprandial plasma cholesterol elevation compared to normal pigs ([1]; pigs, STZ 130 mg/kg): 1.3 fold
- Postprandial plasma triglycerides elevation compared to normal pigs ([1]; pigs, STZ 130 mg/kg): four-fold
- Postprandial plasma NEFA [1, 3]: 1.5 ± 0.5 mmol/L
- Postprandial plasma cholesterol [1, 3]: 2.3 ± 0.2 mmol/L
- Postprandial plasma trigylcerides [1, 3]: 1.2 mmol/L and 1.2 ± 0.3 mmol/L
- Fasting Ra glucose compared to normal pigs [2]: approximately two-fold greater
- Insulin-inhibited hepatic glucose production versus normal pigs [2]: two-fold greater
- Insulin-stimulated whole body glucose uptake versus normal pigs [2]: three-fold lower
